Where two headings read alike, the source gives them in different places.

As usually defined, the LD50 is the dose at which mortality reaches 50%.

One series relates to leukemia P 388. Description: Anti-tumor activity on mice against leukemia P 388. Format: in vivo, CDF1 mice. The note with it: days 1 and 5. The method, then:
(§1) To test the anti-tumor activity of the compounds of the present invention, 100,000 cells/mouse of leukemia L 1210 and 1,000,000 cells/mouse of leukemia P 388 were transplanted by intraperitoneal injection to groups of CDF1 mice, respectively. One and 5 days after the transplantation, the test compound was administered by intraperitoneal injection to the mice.
(§2) The anti-tumor activity of the test compound was evaluated by means of T/C %, i.e., 100 times the mean survival period of the groups injected with the test compound divided by the means survival period of the comparison groups which were not injected with the test compound. The value of higher than 120% for L 1210 and higher than 125% for P 388 means that the test compound has a good effect.

Series [1] deals with ascites-tumor Sarcoma 180A. Format: in vivo, ddN mice. The note with it: for Growth Rate T/C (%): daily from one to five days. The method, then: To test the anti-tumor activity of the compounds of the present invention, cells of ascites-tumor Sarcoma 180A were transplanted by intraperitoneal injection to groups of ddN mice. From one to five days, the test compound was administered by intraperitoneal injection day after day. The ascites of the resulting mice was sampled to evaluate the anti-tumor activity of the test compound by means of the growth rate of the tumor, T/C % (groups with treatment/groups without treatment). In the table, the designations "-", "+", "++" and "+++" mean 100-66%, 65-41%, 40-11% and 10-0%, of the T/C %, respectively.

A further series deals with leukemia L 1210. Description: Anti-tumor activity on mice against leukemia L 1210. The note with it: days 1 and 5. Format: in vivo, CDF1 mice. As for the experimental part:
as §1, §2

Another series relates to male mice (ddN strain). The series can be described thus: Acute toxicity test (intraperitoneal). Format: in vivo. The note with it: i.p., suspension in 0.3% CMC. The method, then:
A suspension of the test substance in 0.3% CMC aqueous solution was intraperitoneally administered to the test mice in a dose amount of 0.5 ml per mouse.

As to `O=C(O)C(=O)O.[NH-][C@@H]1CCCC[C@H]1[NH-].[Pt+2]` (relative stereo) [Compound No. 6, Cis-oxalato(trans-l-1,2-diaminocyclohexane)platinum (II)], the T/C % with leukemia P 388 (P 388, 6.25 mg/kg i.p.) was determined as 188%; in the series with leukemia P 388 (P 388, 25 mg/kg i.p.), 61%; in the series on leukemia P 388 (P 388, 50 mg/kg i.p.), 0%; in the series with leukemia P 388 (P 388, 100 mg/kg i.p.) it was 0%. Moreover, the Evaluation result in series [1] (3 mg/kg i.p.) is “+++ (10-0%)”. Also, the “Growth Rate T/C (%)” value in series [1] (3 mg/kg i.p.) is listed as 9%.

Consider `NC1CCCCC1N.[Cl-].[Cl-].[Pt+2]` (stereo not drawn) [Compound No. 1, Cis-dichloro(cis-1,2-diaminocyclohexane)Platinum (II)], for which the T/C % in the series on leukemia L 1210 (L 1210, 6.25 mg/kg i.p.) stood at 198%; with leukemia L 1210 (L 1210, 12.5 mg/kg i.p.) it was 211%; with leukemia L 1210 (L 1210, 25 mg/kg i.p.) it was 164%; with leukemia L 1210 (L 1210, 100 mg/kg i.p.), 0%; with leukemia L 1210 (L 1210, 200 mg/kg i.p.), 0%; in the series with leukemia L 1210 (L 1210, 400 mg/kg i.p.) it was 0%. Besides, the results for the Evaluation result in series [1] (1 mg/kg i.p.), in series [1] (3 mg/kg i.p.) and in series [1] (10 mg/kg i.p.) were “+ (65-41%)”, “+++ (10-0%)” and “+++ (10-0%)”, respectively. For the same compound, the “Growth Rate T/C (%)” value in series [1] (1 mg/kg i.p.) stood at 57%; in series [1] (3 mg/kg i.p.) it was 3%; in series [1] (10 mg/kg i.p.), 0%. In the series with male mice (ddN strain), the LD50 was found to be 11.3 mg/kg.

For `CC(C(=O)[O-])C(=O)[O-].NC1CCCCC1N.[Pt+2]` [Compound No. 10, Cis-methylmalonato(cis-1,2-diaminocyclohexane)platinum (II)], the T/C % is given as 102% in the series with leukemia P 388 (P 388, 20 mg/kg i.p.); 121% in the series with leukemia P 388 (P 388, 40 mg/kg i.p.); 133% in the series with leukemia P 388 (P 388, 80 mg/kg i.p.).

As to “Cis-uracil(trans-l-1,2-diaminocyclohexane)platinum (II) [Compound No. 15]”, the T/C % worked out at 155% in the series with leukemia P 388 (P 388, 50 mg/kg i.p.); 181% with leukemia P 388 (P 388, 100 mg/kg i.p.); 178% in the series on leukemia P 388 (P 388, 200 mg/kg i.p.).

`NC1CCCCC1N.O=C([O-])CC(=O)[O-].[Pt+2]` (stereo not drawn) [Compound No. 7, Cis-malonato(cis-1,2-diaminocyclohexane)platinum (II)]: the T/C % with leukemia P 388 (P 388, 12.5 mg/kg i.p.) is reported as 126%; in the series with leukemia P 388 (P 388, 25 mg/kg i.p.), 142%; with leukemia P 388 (P 388, 50 mg/kg i.p.) it was 155%. The Evaluation entry in series [1] (10 mg/kg i.p.) is reported as “+ (65-41%)”; in series [1] (30 mg/kg i.p.), “+++ (10-0%)”; in series [1] (100 mg/kg i.p.) it was “+++ (10-0%)”. The “Growth Rate T/C (%)” value is recorded as 61% in series [1] (10 mg/kg i.p.), 0% in series [1] (30 mg/kg i.p.) and 0% in series [1] (100 mg/kg i.p.).

Regarding `CC1C(=O)[O][Pt][O]C1=O.NC1CCCCC1N` [Compound No. 11, Cis-methylmalonato(trans-d-1,2-diaminocyclohexane)platinum(II)], the T/C % turned out to be 121% in the series with leukemia P 388 (P 388, 25 mg/kg i.p.); 138% in the series on leukemia P 388 (P 388, 50 mg/kg i.p.); 154% in the series on leukemia P 388 (P 388, 100 mg/kg i.p.).

On to `CC(C(=O)[O-])C(=O)[O-].NC1CCCCC1N.[Pt+2]` [Compound No. 12, Cis-methylmalonato(trans-l-1,2-diaminocyclohexane)platinum(II)], for which the T/C % in the series on leukemia P 388 (P 388, 25 mg/kg i.p.) was found to be 115%; in the series on leukemia P 388 (P 388, 50 mg/kg i.p.), 122%; in the series on leukemia P 388 (P 388, 100 mg/kg i.p.), 141%.

For `NC1CCCCC1N.O=C([O-])CC(=O)[O-].[Pt+2]` (stereo not drawn) [Compound No. 9, Cis-malonato(trans-l-1,2-diaminocyclohexane)platinum (II)], the T/C % stood at 202% in the series with leukemia P 388 (P 388, 75 mg/kg i.p.) and 104% in the series on leukemia P 388 (P 388, 150 mg/kg i.p.). For the same compound, the “Growth Rate T/C (%)” value in series [1] (3 mg/kg i.p.) was found to be 85%; in series [1] (10 mg/kg i.p.) it was 17%; in series [1] (30 mg/kg i.p.), 1%; in series [1] (100 mg/kg i.p.), 4%. Besides, the Evaluation entry in series [1] (10 mg/kg i.p.) is given as “++ (40-11%)”; in series [1] (30 mg/kg i.p.), “+ ++”; in series [1] (100 mg/kg i.p.) it was “+++ (10-0%)”.

Consider “Cis-uracil(cis-1,2-diaminocyclohexane)platinum (II) [Compound No. 13]”, for which the T/C % in the series on leukemia P 388 (P 388, 100 mg/kg i.p.) is 163%; in the series with leukemia P 388 (P 388, 200 mg/kg i.p.) it was 71%; in the series with leukemia P 388 (P 388, 400 mg/kg i.p.), 0%.

As to `NC1CCCCC1N.[Cl-].[Cl-].[Pt+2]` (stereo not drawn) [Compound No. 3, Cis-dichloro(trans-l-1,2-diaminocyclohexane)platinum (II)], the T/C % was 316% in the series with leukemia L 1210 (L 1210, 6.25 mg/kg i.p.); 379% with leukemia L 1210 (L 1210, 12.5 mg/kg i.p.); 88% in the series on leukemia L 1210 (L 1210, 25 mg/kg i.p.); 71% with leukemia L 1210 (L 1210, 50 mg/kg i.p.); 0% in the series with leukemia L 1210 (L 1210, 100 mg/kg i.p.); 0% in the series with leukemia L 1210 (L 1210, 200 mg/kg i.p.). Also, the Evaluation entry is given as “++ (40-11%)” in series [1] (1 mg/kg i.p.) and “+++ (10-0%)” in series [1] (3 mg/kg i.p.). Also, the “Growth Rate T/C (%)” value in series [1] (1 mg/kg i.p.) worked out at 18%; in series [1] (3 mg/kg i.p.) it was 2%. In the series with male mice (ddN strain), the LD50 was found to be 14.1 mg/kg.

For `NC1CCCCC1N.O=C1CC(=O)[O][Pt][O]1` (stereo not drawn) [Compound No. 8, Cis-malonato(trans-d-1,2-diaminocyclohexane)platinum (II)], the T/C % with leukemia P 388 (P 388, 12.5 mg/kg i.p.) is listed as 121%; in the series with leukemia P 388 (P 388, 25 mg/kg i.p.) it was 138%; with leukemia P 388 (P 388, 50 mg/kg i.p.), 155%. Further, the Evaluation result in series [1] (10 mg/kg i.p.) is “+ (65-41%)”; in series [1] (30 mg/kg i.p.), “+++ (10-0%)”; in series [1] (100 mg/kg i.p.) it was “+++ (10-0%)”. Moreover, the entries for the “Growth Rate T/C (%)” value in series [1] (10 mg/kg i.p.), in series [1] (30 mg/kg i.p.) and in series [1] (100 mg/kg i.p.) were 47%, 1% and 0%, respectively.

For `NC1CCCCC1N.[Cl][Pt][Cl]` (stereo not drawn) [Compound No. 2, Cis-dichloro(trans-d-1,2-diaminocyclohexane)platinum (II)], the T/C % in the series with leukemia L 1210 (L 1210, 12.5 mg/kg i.p.) stood at 291%; in the series on leukemia L 1210 (L 1210, 25 mg/kg i.p.), 110%; in the series on leukemia L 1210 (L 1210, 50 mg/kg i.p.) it was 71%; in the series with leukemia L 1210 (L 1210, 100 mg/kg i.p.), 71%; in the series on leukemia L 1210 (L 1210, 200 mg/kg i.p.), 0%. Also, the Evaluation entry is recorded as “++ (40-11%)” in series [1] (1 mg/kg i.p.) and “+++ (10-0%)” in series [1] (3 mg/kg i.p.). In addition, the “Growth Rate T/C (%)” value in series [1] (1 mg/kg i.p.) was found to be 8%; in series [1] (3 mg/kg i.p.), 1%. The compound also came in with an LD50 in the series with male mice (ddN strain) of 22.5 mg/kg.

For `NC1CCCCC1N.[Cl][Pt][Cl]` (stereo not drawn) [cis-dichloro (1,2-DAC) Pt(II), reference compound], the Evaluation result in series [1] (0.3 mg/kg i.p.) was “++ (40-11%)”; in series [1] (1 mg/kg i.p.) it was “++ (40-11%)”; in series [1] (3 mg/kg i.p.), “+++ (10-0%)”. In addition, the “Growth Rate T/C (%)” value in series [1] (0.3 mg/kg i.p.) was determined as 12%; in series [1] (1 mg/kg i.p.) it was 19%; in series [1] (3 mg/kg i.p.), 3%.

“Cis-uracil(trans-d-1,2-diaminocyclohexane)platinum (II) [Compound No. 14]”: the T/C % with leukemia P 388 (P 388, 50 mg/kg i.p.) is 140%; in the series on leukemia P 388 (P 388, 100 mg/kg i.p.), 142%; in the series on leukemia P 388 (P 388, 200 mg/kg i.p.), 178%.

Consider `NC1CCCCC1N.O=C1[O][Pt][O]C1=O` (stereo not drawn) [Compound No. 4, Cis-oxalato(cis-1,2-diaminocyclohexane)platinum (II)], for which the T/C % with leukemia P 388 (P 388, 25 mg/kg i.p.) is on record as 200%; in the series with leukemia P 388 (P 388, 50 mg/kg i.p.) it was 0%; in the series with leukemia P 388 (P 388, 100 mg/kg i.p.), 0%. In addition, the “Growth Rate T/C (%)” value in series [1] (0.3 mg/kg i.p.) amounted to 83%; in series [1] (1 mg/kg i.p.), 0%; in series [1] (3 mg/kg i.p.), 0%; in series [1] (10 mg/kg i.p.), 0%. Further, the Evaluation entry in series [1] (1 mg/kg i.p.), in series [1] (3 mg/kg i.p.) and in series [1] (10 mg/kg i.p.) was “+++ (10-0%)” each time.

With `NC1CCCCC1N.O=C1[O][Pt][O]C1=O` (stereo not drawn) [Compound No. 5, Cis-oxalato(trans-d-1,2-diaminocyclohexane)platinum (II)], the T/C % is given as 174% in the series with leukemia P 388 (P 388, 10 mg/kg i.p.); 195% with leukemia P 388 (P 388, 20 mg/kg i.p.); 0% with leukemia P 388 (P 388, 40 mg/kg i.p.). Moreover, the Evaluation result in series [1] (3 mg/kg i.p.) is given as “+++ (10-0%)”. Also, the “Growth Rate T/C (%)” value in series [1] (3 mg/kg i.p.) is recorded as 10%.

These data come from patent US4169846A, “Cis-platinum (II) complex of trans-l-1,2-diaminocyclohexane” (priority 1976, dated 1979).
